Data from patent US8530381B2, “Active compound combinations” (Bayer CropScience AG, priority 2009, dated 2013).

Assays:
Pyrenophora teres = assay: Pyrenophora teres-test (barley)/preventive; format: in vivo; details: preventive spray, evaluated 8 days after inoculation
Procedure: (§1) Here, the efficacy is determined in %. 0% means an efficacy which corresponds to that of the control, whereas an efficacy of 100% means that no infection is observed.
(§2) If the actual fungicidal action exceeds the calculated value, the action of the combination is superadditive, i.e. a synergistic effect is present. In this case, the actually observed efficacy must exceed the value calculated using the above formula for the expected efficacy (E).
Pyrenophora teres-Test (Barley)/Preventive
(§3) Solvent: 49 parts by weight of n,n-dimethylacetamid
(§4) Emulsifier: 1 part by weight of alkylaryl polyglycol ether
(§5) To produce a suitable preparation of active compound, 1 part by weight of active compound or active compound combination is mixed with the stated amounts of solvent and emulsifier, and the concentrate is diluted with water to the desired concentration.
(§6) To test for preventive activity, young plants are sprayed with the preparation of active compound or active compound combination at the stated rate of application.
After the spray coating has been dried, the plants are sprayed with a spore suspension of Pyrenophora teres. The plants remain for 48 hours in an incubation cabinet at approximately 20° C. and a relative atmospheric humidity of approximately 100%. […]
The test is evaluated 8 days after the inoculation. […]

[1] = test system: Blumeria graminis f.sp. hordei; assay: Blumeria-test (barley)/preventive; format: in vivo; details: preventive spray, application rate 62,5 g/ha, evaluated 7 days after inoculation
Procedure: as §1, §2
Blumeria Test (Barley)/Preventive
as §3, §4, §5, §6
After the spray coating has been dried, the plants are dusted with spores of Blumeria graminis f.sp. hordei.
The plants are placed in the greenhouse at a temperature of approximately 18° C. and a relative atmospheric humidity of approximately 80% to promote the development of mildew pustules.
The test is evaluated 7 days after the inoculation. 0% means an efficacy which corresponds to that of the control, while an efficacy of 100% means that no disease is observed.

Structure (SMILES)	Efficacy in % found (Pyrenophora teres; application rate 125 g/ha)	Efficacy in % found [1]	Efficacy in % found (Pyrenophora teres; application rate 62,5 g/ha)
OC(Cc1ccccc1Cl)(Cn1nc[nH]c1=S)C1(Cl)CC1 (centres unmarked) [1.41, prothioconazole]	70%		
CCN(C)/C=N/c1cc(C)c(Oc2nc(Cc3ccc(Cl)cc3)ns2)cc1C [I-a]		40%	40%
Cn1cc(C(=O)Nc2ccc(F)cc2-c2ccc(Cl)c(Cl)c2)c(C(F)F)n1 [2.2, bixafen]		10%	
CO/N=C(/C(=O)OC)c1ccccc1CO/N=C(\C)c1cccc(C(F)(F)F)c1 [3.17, trifloxystrobin]		80%	
